Results on 1 molecule are retold here after US11166924B2, “N-methyl-d-aspartate receptor allosteric modulators and methods for their use” (Qingdao Primedicine Pharmaceutical Company, Ltd., priority 2016, dated 2021).

For one test, the target named is T1, GluN1/GluN2A^F115Y (Rattus norvegicus, UniProt P35439+Q00959, F115Y).
T1 construct: expressed in transfected cells; host or cells: HEK293
Put plainly: Patch clamp in HEK293 cells expressing mutant GluN1/GluN2A F115Y. It is filed as cell-based. The procedure: (§1) Whole cell patch-clamp recordings were performed under voltage-clamp mode using an Axopatch 200B or 1D patch-clamp amplifier (Molecular Devices). Whole-cell currents were recorded at a holding potential of −60 mV unless indicated elsewhere, and signals were filtered at 2 kHz, digitized at 10 kHz (Digidata 1322A). Recording pipettes (3-5 MΩ) were filled with intracellular solution containing (mM): CsCl 140, HEPES 10, Mg-ATP 4, QX-314 5, pH 7.20; osmolarity, 290-295 mOsm. BAPTA (10 mM) was added in the intracellular solution (unless otherwise specified). The coverslips were continuously superfused with extracellular solution containing (mM): NaCl 140, KCl 5.4, HEPES 10, CaCl2 1.3, glucose 20, pH 7.4; osmolarity, 305-315 mOsm. NMDA-induced currents were applied by NMDA through perfusion fast-step (Warner Instruments). With perfusion fast-step system, NMDA application was achieved by using a two-square barrel glass tubing and depending on the age of the cultured neurons, CNQX (10 μM), TTX (0.5 μM) or BIC (10 μM) were added in the extracellular solution to minimize the activation of ionotropic glutamate receptors and voltage-gated sodium channels, respectively. All experiments were performed at room temperature. Recordings from at least six HEK293 cells/neurons were performed for all active compounds. […]

For the next test, the target named is T2, GluN1/GluN2A^I176Y (Rattus norvegicus, UniProt P35439+Q00959, I176Y).
T2 construct: expressed in transfected cells; host or cells: HEK293
Description: Patch clamp in HEK293 cells expressing mutant GluN1/GluN2A I176Y. It is filed as cell-based. The protocol: as §1
On the technique in general: The patch-clamp technique gives a direct electrical read-out from membranes.

The target of a further test is T3, GluN1^R115E/GluN2A (Rattus norvegicus, UniProt P35439+Q00959, R115E).
T3 construct: expressed in transfected cells; host or cells: HEK293
Description: Patch clamp in HEK293 cells expressing mutant GluN1 R115E/GluN2A. It is filed as cell-based. The procedure: as §1

Test [1] deals with CREB phosphorylation (pCREB). Put plainly: CREB phosphorylation (pCREB) immunoblotting in cortical neurons. The test is classed as cell-based, rat. The note with it: presence or absence of ifenprodril; FIG. 15a. The procedure:
Dissociated cultures of rat cortical neurons were prepared from 18 day-old Sprague Dawley rat embryos as described previously. To obtain mixed cortical cultures enriched with neurons, uridine (10 μM) and 5-Fluor-2′-deoxyuridine (10 μM) were added to the culture medium at 3 days in vitro (DIV) and maintained for 48 h to inhibit non-neuronal cell proliferation before the cultures were returned to the normal culture medium. Mature neurons (11-14 DIV) were used for experiments. Mouse cortical cultures were prepared using embryos at 18 days post-coitum from litters resulting from heterozygote GluN2A+/− or GluN2B+/− matings. To obtain homozygous and wild-type (WT) littermate control neuronal cultures, cortical cells from individual embryos were plated separately. Genotyping was performed as described previously using tail samples collected from each embryo. To induce neuronal apoptosis, cortical cultures were stimulated with NMDA (50 μM) and glycine (10 μM) for 20 min, or STS (100 nM) for 1 h in Mg2+-free extracellular solution (ECS) containing the following (in mM): 25 HEPES acid, 140 NaCl, 33 glucose, 5.4 KCl, and 1.3 CaCl2, with pH 7.35 and osmolarity 320-330 mOsm. […]
(In western blotting, separated proteins are transferred to a membrane and probed.)

T3 sequence (Q00959 23-1464, other chains not shown): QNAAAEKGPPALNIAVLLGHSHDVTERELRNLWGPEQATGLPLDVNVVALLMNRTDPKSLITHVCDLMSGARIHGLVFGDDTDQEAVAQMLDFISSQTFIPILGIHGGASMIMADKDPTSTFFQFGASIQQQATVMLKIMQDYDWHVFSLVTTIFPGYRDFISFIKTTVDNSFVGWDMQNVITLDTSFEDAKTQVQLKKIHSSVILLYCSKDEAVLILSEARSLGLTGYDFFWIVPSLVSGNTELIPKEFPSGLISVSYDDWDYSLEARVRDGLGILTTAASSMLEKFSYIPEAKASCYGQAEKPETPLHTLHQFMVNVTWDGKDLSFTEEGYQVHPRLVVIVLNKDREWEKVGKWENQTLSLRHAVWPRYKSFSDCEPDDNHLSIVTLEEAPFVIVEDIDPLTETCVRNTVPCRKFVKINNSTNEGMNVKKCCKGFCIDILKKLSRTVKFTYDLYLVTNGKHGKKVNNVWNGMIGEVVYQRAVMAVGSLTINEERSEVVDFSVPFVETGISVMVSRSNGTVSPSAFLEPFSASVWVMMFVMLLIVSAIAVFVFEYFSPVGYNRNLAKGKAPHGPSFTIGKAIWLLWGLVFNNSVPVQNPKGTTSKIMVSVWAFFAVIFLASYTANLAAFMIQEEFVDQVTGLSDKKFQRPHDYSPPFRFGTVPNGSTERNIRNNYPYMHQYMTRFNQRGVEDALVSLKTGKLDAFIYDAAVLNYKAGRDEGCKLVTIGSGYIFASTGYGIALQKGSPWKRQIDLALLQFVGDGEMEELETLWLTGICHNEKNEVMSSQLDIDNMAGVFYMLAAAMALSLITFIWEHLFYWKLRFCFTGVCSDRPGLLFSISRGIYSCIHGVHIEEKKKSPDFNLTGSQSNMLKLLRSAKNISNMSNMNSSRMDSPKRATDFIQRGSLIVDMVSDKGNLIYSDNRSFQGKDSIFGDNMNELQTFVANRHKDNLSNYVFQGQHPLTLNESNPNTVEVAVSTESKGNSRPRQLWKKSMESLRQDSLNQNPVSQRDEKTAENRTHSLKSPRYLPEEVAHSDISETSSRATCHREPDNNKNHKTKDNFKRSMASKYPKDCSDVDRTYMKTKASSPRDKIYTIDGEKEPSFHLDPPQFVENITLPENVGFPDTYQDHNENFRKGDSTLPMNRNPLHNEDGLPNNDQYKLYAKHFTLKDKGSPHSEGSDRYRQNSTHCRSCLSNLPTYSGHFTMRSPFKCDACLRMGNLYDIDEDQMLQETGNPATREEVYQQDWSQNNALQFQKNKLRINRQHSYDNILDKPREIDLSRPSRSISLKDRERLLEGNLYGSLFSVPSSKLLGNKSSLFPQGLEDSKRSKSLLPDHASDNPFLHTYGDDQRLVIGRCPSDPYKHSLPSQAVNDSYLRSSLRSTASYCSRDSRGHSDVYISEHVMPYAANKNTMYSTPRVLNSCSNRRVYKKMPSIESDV
T1 sequence (Q00959 23-1464 F115Y, other chains not shown): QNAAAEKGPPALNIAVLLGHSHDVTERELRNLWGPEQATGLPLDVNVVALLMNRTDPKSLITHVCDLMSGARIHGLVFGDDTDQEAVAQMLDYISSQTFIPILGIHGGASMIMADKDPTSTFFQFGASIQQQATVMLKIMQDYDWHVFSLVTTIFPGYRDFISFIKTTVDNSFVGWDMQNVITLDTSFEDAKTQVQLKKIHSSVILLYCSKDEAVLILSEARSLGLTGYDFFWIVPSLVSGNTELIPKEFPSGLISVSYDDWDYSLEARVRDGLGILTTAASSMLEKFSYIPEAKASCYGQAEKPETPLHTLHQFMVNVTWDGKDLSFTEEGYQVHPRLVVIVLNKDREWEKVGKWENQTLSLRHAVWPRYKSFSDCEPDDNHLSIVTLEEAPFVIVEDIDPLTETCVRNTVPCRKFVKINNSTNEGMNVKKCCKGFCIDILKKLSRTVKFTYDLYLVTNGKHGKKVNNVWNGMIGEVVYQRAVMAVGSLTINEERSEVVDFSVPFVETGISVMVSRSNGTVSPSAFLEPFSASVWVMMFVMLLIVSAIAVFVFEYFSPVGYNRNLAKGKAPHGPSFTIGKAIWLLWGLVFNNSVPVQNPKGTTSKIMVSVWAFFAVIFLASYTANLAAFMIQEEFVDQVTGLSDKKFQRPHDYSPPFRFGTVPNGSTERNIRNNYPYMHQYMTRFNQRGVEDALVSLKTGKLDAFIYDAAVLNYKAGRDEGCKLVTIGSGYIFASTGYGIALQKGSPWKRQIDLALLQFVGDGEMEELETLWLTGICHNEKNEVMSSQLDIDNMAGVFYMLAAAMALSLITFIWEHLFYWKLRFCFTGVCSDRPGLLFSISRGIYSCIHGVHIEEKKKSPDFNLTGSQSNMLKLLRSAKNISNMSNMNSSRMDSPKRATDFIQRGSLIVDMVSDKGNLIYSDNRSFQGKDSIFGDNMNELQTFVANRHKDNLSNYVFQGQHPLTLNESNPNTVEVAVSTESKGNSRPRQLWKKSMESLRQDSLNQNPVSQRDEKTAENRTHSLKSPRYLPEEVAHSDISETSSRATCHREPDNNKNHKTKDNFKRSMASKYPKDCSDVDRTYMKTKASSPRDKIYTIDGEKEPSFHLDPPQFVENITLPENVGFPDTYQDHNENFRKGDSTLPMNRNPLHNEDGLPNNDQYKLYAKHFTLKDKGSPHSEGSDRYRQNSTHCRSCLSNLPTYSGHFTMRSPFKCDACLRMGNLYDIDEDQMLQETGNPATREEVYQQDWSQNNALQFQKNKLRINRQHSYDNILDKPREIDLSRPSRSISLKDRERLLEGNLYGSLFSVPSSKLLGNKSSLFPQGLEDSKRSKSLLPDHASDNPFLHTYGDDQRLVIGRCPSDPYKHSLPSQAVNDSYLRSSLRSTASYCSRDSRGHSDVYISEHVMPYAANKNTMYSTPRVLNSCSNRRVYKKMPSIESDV
T2 sequence (Q00959 23-1464 I176Y, other chains not shown): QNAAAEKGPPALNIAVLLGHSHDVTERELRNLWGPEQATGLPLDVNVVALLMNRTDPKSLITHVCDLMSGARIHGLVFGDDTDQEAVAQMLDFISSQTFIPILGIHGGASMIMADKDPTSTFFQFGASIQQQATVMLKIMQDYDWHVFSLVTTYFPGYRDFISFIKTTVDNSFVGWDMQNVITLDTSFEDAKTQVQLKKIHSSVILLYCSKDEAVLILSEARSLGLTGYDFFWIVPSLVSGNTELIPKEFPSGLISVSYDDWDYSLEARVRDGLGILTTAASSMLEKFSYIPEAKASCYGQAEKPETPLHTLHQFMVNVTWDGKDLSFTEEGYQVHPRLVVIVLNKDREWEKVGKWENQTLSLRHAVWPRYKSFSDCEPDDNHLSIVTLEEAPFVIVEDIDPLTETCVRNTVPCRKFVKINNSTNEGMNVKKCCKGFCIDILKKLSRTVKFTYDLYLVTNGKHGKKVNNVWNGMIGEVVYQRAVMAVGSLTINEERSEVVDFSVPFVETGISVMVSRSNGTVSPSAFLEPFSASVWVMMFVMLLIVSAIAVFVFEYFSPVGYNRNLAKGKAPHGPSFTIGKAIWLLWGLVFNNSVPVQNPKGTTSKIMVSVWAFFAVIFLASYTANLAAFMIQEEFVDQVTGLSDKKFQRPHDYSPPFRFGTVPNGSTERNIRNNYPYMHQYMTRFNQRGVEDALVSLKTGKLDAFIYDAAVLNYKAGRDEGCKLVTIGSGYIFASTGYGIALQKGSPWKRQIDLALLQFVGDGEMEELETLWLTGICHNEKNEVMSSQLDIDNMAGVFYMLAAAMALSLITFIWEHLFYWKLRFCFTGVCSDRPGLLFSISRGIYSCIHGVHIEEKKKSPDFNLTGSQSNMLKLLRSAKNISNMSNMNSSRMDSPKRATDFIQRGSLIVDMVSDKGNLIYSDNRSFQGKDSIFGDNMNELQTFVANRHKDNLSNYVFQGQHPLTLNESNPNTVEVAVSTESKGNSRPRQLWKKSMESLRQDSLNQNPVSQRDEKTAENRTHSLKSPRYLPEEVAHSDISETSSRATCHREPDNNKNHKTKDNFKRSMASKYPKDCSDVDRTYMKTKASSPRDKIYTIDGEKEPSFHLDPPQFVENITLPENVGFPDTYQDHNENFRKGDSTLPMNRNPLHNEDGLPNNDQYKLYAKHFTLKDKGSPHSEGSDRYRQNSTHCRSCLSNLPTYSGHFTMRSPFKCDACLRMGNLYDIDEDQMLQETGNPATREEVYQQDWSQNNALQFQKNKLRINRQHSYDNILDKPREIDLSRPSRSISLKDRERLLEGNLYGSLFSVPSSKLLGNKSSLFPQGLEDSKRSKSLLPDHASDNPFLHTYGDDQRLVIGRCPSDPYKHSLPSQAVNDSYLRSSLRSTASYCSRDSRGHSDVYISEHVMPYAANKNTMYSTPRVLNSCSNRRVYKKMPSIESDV

Regarding `CCOc1cc(Cl)c(Cl)c(/C=N/NC(=O)c2ccccc2Br)c1O` [Npam43, (E)-2-bromo-N′-(2,3-dichloro-5-ethoxy-6-hydroxybenzylidene)benzohydrazide], the results for the Relative potentiation on GluN1/GluN2A^F115Y (Table 3), at GluN1/GluN2A^I176Y (Table 3) and on GluN1^R115E/GluN2A (Table 3) were 100 ± 4.2%, 189 ± 3.8% and 255 ± 3.5%, respectively. Further, the “Net Difference potentiation” value on GluN1/GluN2A^F115Y (normalized to wild-type) is on record as −52.2 ± 0.52%; at GluN1/GluN2A^I176Y (normalized to wild-type) it was −10.1 ± 0.12%; at GluN1^R115E/GluN2A (normalized to wild-type) it was “+22.0 ± 0.40%”. Also, the “CREB phosphorylation (pCREB)” value in test [1] is on record as “increases”.
